Several values for one entry are separate records, joined by “and”; a condition that tells them apart may be missing. Equal values may be shown once.
Assays:
Assay type in all cases: in vivo, Wistar Albino rat
[1] = test system: streptozotocin treated diabetic rats; experiment: Fasting blood glucose in streptozotocin induced diabetic rats, 15 days of treatment; conditions: for Blood glucose on 15th day: Glyclazide 1.44 mg/200 g body weight, single oral dose daily, day 1 to 15; for Blood glucose on 1st day: before treatment, group later given Glyclazide 1.44 mg/200 g body weight oral daily
Procedure: Albino Wistar rats of both sex (male and female) were procured from the laboratory of Columbia Institute of Pharmacy Tekari, Raipur 493111 (C.G.), India, and were maintained under a 12 h light/dark cycle and allowed for feed and water without limit. Approved experimental protocol in accordance with the guidelines provided by the committee for the control and supervision of experiments on animals (CPCSEA). The experimental rats were registered by CPCSEA and registration number was 1321/ac/10/CPCSEA.
A. Species: Wistar Albino rat
(§1) Diabetes was induced in rats by the intra peritoneal injection of streptozotocin (Himedia) at a dose of 50 mg/kg body weight dissolved in citrate buffer (0.1 M, pH 4.5) in the volume of 1 ml/kg. The diabetic rats were given 5% w/v glucose solution orally in order to prevent hypoglycemia during the first day after the streptozotocin administration. Three days after the injection (six group), the blood glucose levels were measured and the animals with blood glucose levels above 300 mg/dl were considered as being diabetic and were used in the subsequent experiments. In all the experiments, rats were fasted for 16 hr prior to streptozotocin injection. • a. Total units=202.5 • b. 1 ml=40 units, 0.1 ml=4 units • c. Therefore total units 202.5/40 units=5.06 ml of streptozotocin solution • d. Freshly prepared streptozotocin solution (5.06 ml of solution/36 rats according to body weight) fed as a single dose only once to induce diabetes.
(§2) Experimental rats were divided in 4 groups of 6 rats per group and 4th group further divided in 4 groups with 6 rats in each sub group. The details of treatments were given below:
c. Group 3—Standard drug group—Diabetic animals received daily a single oral dose of the reference drug Glyclazide 1.44 mg/200 g body weight from day 1 to 15. […]
(§3) Blood samples were collected retro-orbitally from the inner canthus of the eye under light ether anesthesia using capillary tubes (Micro Hemocrit Capillariea, Mucaps) as described by Sorg and Buckner (1964); Blood was transferred into fresh vials and serum was separated by centrifuging at 2000 rpm for 2 min. Blood glucose levels were measured using Accu-Check glucose kit.
(§4) To observe the effect of administration of cow urine powder SMP blends and standard drug glyclazide diabetic rats was determined by measuring the fasting blood glucose levels and serum lipid profiles.
(§5) Day 3 of induction was designed as day 1 for administration of the standard drug glyclazide and cow urine SMP blends to diabetic rats, fasting blood glucose levels measured on days 1, 5, 10 and 15 of the experiment period. Other parameters were determined on after day 15 and residual study was carried out for another 15 days to observe the reappearance diabetes.
(§6) Blood glucose was measured by using Accu-Check Active Glucometer (Roche) and the result was expressed as milligram per deciliter (mg/dl). This instrument is working on the principle of photometry.

[2] = test system: streptozotocin treated diabetic rats; experiment: Serum lipid profile (cholesterol, LDL, HDL, triglyceride) in streptozotocin treated diabetic rats; conditions: for Lipid profile Cholesterol / Lipid profile HDL / Lipid profile LDL / Lipid profile Triglyceride: after 15th day, Glyclazide 1.44 mg/200 g body weight daily
Procedure: as §1, §2, §3, §4, §5
The serum lipid profile parameters such as cholesterol, HDL, LDL and triglycerides content were studied by using blood serum obtained during the experiments.
Cholesterol content in the blood samples were analyzed by using Bio Chemistry
Analyzer which is working on the principle of Lambert's-Beer's law.
For estimation of triglycerides, Bio-chemistry Analyzer was used.

[3] = test system: streptozotocin treated diabetic rats; experiment: Residual effect on blood glucose levels of diabetic rats during 15-day residual period after treatment; conditions: residual period after withdrawal, Glyclazide 1.44 mg/200 g
Procedure: as §5, §6
Residual effect of standard drug glyclazide group, skim milk powder group and cow urine powder SMP blends groups (100, 200 and 400 mg) for residual of blood glucose levels in streptozotocin treated rats for 15 days and observations were recorded.

[4] = starting value, Glyclazide group

With `Cc1ccc(S(=O)(=O)NC(=O)NN2CC3CCCC3C2)cc1` (centres unmarked) [Standard Glyclazide, Glyclazide] the “Blood glucose on 15th day” value [1] was 125.25 ± 12.33 mg/dL, the “Blood glucose on 15th day” value ([1]; listed as glyclazide) was 125.25 mg/dL and 125.2 mg/dL and the “Blood glucose on 1st day” value [1] was 599.16 ± 57.10 mg/dL. The “Blood glucose on 1st day” value ([1]; listed as glyclazide) was 599.1 mg/dL, the “percent reduce of blood glucose on 15th day” value ([1]; vs 1st day, Glyclazide 1.44 mg/200 g body weight daily) was “(79.09%)” and the “Lipid profile Cholesterol” value [2] was 67.72 ± 3.37 mg/dL. The “Lipid profile HDL” value [2] was 51.55 ± 1.91 mg/dL, the “Lipid profile LDL” value [2] was 16.17 ± 5.25 mg/dL and the “Lipid profile Triglyceride” value [2] was 95.35 ± 3.10 mg/dL. The “Lipid profile Cholesterol” value ([2]; listed as glyclazide) was 67.72 mg/dL, the “Lipid profile HDL” value ([2]; listed as glyclazide) was 51.55 mg/dL and the “Lipid profile LDL” value ([2]; listed as glyclazide) was 16.17 mg/dL. For the same compound, the “Lipid profile Triglyceride” value ([2]; listed as glyclazide) was 95.35 mg/dL, the “blood HDL level before treatment (increased from)” value [2, 4] was 41.75 mg/dL and the “blood LDL level before treatment (reduced from)” value [2, 4] was 83.73 mg/dL. The “blood cholesterol level before treatment (reduced from)” value [2, 4] was 125.44 mg/dL, the “triglyceride level before treatment (reduced from)” value [2, 4] was 187.96 mg/dL and the “Blood glucose level 20th Day” value [3] was 176.50 ± 29.75 mg/dL. For the same compound, the “Blood glucose level 25th Day” value [3] was 174.76 ± 27.42 mg/dL, the “Blood glucose level 30th Day” value [3] was 201.57 ± 29.85 mg/dL and the “Blood glucose level 20th Day” value ([3]; listed as glyclazide) was 176.50 mg/dL. For the same compound, the “Blood glucose level 25th Day” value ([3]; listed as glyclazide) was 174.76 mg/dL and the “Blood glucose level 30th Day” value ([3]; listed as glyclazide) was 201.57 mg/dL.
